We go through four compounds from article PMC6218659, “Structures of DPAGT1 Explain Glycosylation Disease Mechanisms and Advance TB Antibiotic Design” (Cell, 2018).

Values after ≈ are worked out from the molar mass of the structure shown. Where two headings read alike, the source gives them in different places.

One series deals with Mtb H37Rv ATCC27294. The series is described as follows: Minimum inhibitory concentrations testing against Mtb. Type of series: cell-based, Mycobacterium tuberculosis. The following applies: for MIC: Mycobacterium tuberculosis.
In a further series the test system is HEK293 cells. The series is described as follows: Cell proliferation assay (MTS). Type of series: cell-based, human. The following applies: for LD50 values, HEK293: MTS cell proliferation assay, 24 hrs, highest concentration 400 µg mL-1. The procedure:
(§1) In sterile 96-well plate, each well was seeded with ∼1x10^5 cells. The cells are then grown confluent overnight in 100 μl DMEM with 10% FBS. The medium is replenished with DMEM with 2% FBS and added vehicle control or test substance the next day. For test substance in methanol, stock was added to 25 μl of DMEM with 2% FBS or PBS and placed in the laminar flow hood to let the methanol evaporate (about 1-3 hrs). Once the methanol has evaporated, DMEM with 2% FBS was added to final volume of 100 μl of desired test concentration. […] Cells are grown for additional 24 hrs. The cell viability was determined by using Promega CellTiter 96^© AQueous One Solution Cell Proliferation Assay (3-(4,5-dimethylthiazol-2-yl)-5-(3-carboxymethoxyphenyl)-2-(4-sulfophenyl)-2H-tetrazolium, inner salt; MTS) System following the manufacture protocol.
A general note: Tetrazolium dyes change colour on reduction, which living cells bring about.

A further series concerns HepG2 cells. Kind of series: Cell proliferation assay (MTS). Type of series: cell-based, human. The following applies: for LD50 values, HepG2: MTS cell proliferation assay, 24 hrs, highest concentration 400 µg mL-1. On the procedure:
as §1

The next series deals with Raji cells. The series is described as follows: Cell proliferation assay (MTS). Type of series: cell-based, human. The following applies: 24 hrs. On the procedure:
as §1

A further series deals with B. subtilis EC1524. Kind of series: Micro-broth dilution and drop plate antimicrobial susceptibility test. The series is classed as cell-based, Bacillus subtilis. On the procedure: (§2) In a sterile 96-well plate, serial dilutions were made with the test substance to final volume of 50 μl. Inoculum was then prepared in Mueller-Hinton broth to 0.5 McFarland and diluted before adding 50 μl to the well to make ∼1x10^5 CFU/ml. The culture plate was incubated at 35 °C for 20-24 hrs. A positive growth control and sterility wells were also prepared along with the culture wells. Absorbance at OD600 was taken using BMG Labtech SPECTROstar Omega spectrophotometer. MIC is determined by the lowest concentration without growth. IC50 is determined from plotting a dose-response curve, see Data Analysis below. To determine the MBC, using a multi-channel pipette, 1 μl of culture broth was taken from the same 96-well microdilution growth plate and carefully inoculated on surface of MH agar plate. The plate is then incubated for additional 20 hrs. at 35 °C. The MBC value is the lowest concentration without observed growth on the agar.
In general terms: Dilution methods test growth across graded concentrations, often in twofold steps.

Another series deals with B. cereus ATCC11778. Described as above. The series is classed as cell-based, Bacillus cereus. On the procedure:
as §2

Another series deals with E. coli ATCC25922. The description is as above. Type of series: cell-based. The following applies: Escherichia coli. On the procedure:
as §2

The subject of another series is P. aeruginosa ATCC27853. The description is as above. The series is classed as cell-based. The following applies: Pseudomonas aeruginosa. The procedure:
as §2

A further series concerns S. aureus ATCC29219. The series is described as above. Type of series: cell-based. The following applies: Staphylococcus aureus. On the procedure: as §2
Where [1] appears, read: minimal lethal dose / MIC, 800 μg mL-1 used for >400.
[2] abbreviates: serial 2-fold dilutions (Table S6).

Turning to `CC(=O)N[C@H]1C(O)O[C@H](C[C@@H](O)[C@H]2O[C@@H](n3ccc(=O)[nH]c3=O)[C@H](O)[C@@H]2O)[C@H](O)[C@@H]1O` (stereo partly shown) [(2), N-acetyl-tunicamyl-uracil], the MIC with Mtb H37Rv ATCC27294 (168 h, Mtb H37Rv, minimal growth medium, read-out: 1-week MIC in GAST/Fe) was 42.5 ± 3.5 µg/mL; in the series on Mtb H37Rv ATCC27294 (168 h, Mtb H37Rv, rich 7H9-based growth medium, read-out: 1-week MIC in 7H9/ADC/Tw) it was more than 60 µg/mL. The “LD50 values, HEK293” value with HEK293 cells is “N/A (N/A = not available. No or low cytotoxicity observed at highest, saturating concentration tested (400 µg mL-1))”. The “LD50 values, HepG2” value with HepG2 cells is on record as “N/A (N/A = not available. No or low cytotoxicity observed at highest, saturating concentration tested (400 µg mL-1))”. In addition, in the series with Raji cells, the “LD50 values, Raji” value turned out to be 303.80 ± 9.83 µg/mL.

In the case of `N[C@@H]1CON=C1O` [D-cycloserine, reference compound], the MIC in the series on Mtb H37Rv ATCC27294 (Mtb H37Rv, used for macromolecular incorporation assay, read-out: MIC concentrations for controls) stood at 29 µM.

Regarding `NNC(=O)c1ccncc1` [Isoniazid, reference compound], the MIC with Mtb H37Rv ATCC27294 (Mtb H37Rv, tested from 0.024 - 50 μM, read-out: MIC of positive control) is 0.2 ± 0.1 µM.

As usually defined, the IC50 is the concentration at which inhibition is half-maximal. For orientation: MBC means the lowest tested concentration that kills the bacteria rather than only halting them. The low end stands for greater bactericidal potency, the high end for weaker bactericidal potency. For the compound `CCCCCCC(=O)N[C@H]1[C@H](O[C@H]2O[C@H](CO)[C@@H](O)[C@H](O)[C@H]2NC(=O)CCCCCC)O[C@H](C[C@@H](O)[C@H]2O[C@@H](n3ccc(=O)[nH]c3=O)[C@H](O)[C@@H]2O)[C@H](O)[C@@H]1O` [TUN-7,7, Di-N-heptanoyl tunicamycin], the IC50 with B. subtilis EC1524 (Bacillus subtilis, EC1524) turned out to be 3.12 ± 1.04 µg/mL (≈ 3.95 µM); in the series with B. cereus ATCC11778 (Bacillus cereus, ATCC11778) it was 13.3 µg/mL (≈ 16.9 µM); with E. coli ATCC25922, 131 µg/mL (≈ 166 µM); with P. aeruginosa ATCC27853 it was 62.4 µg/mL (≈ 79 µM); with S. aureus ATCC29219 it was 80.5 µg/mL (≈ 102 µM). Moreover, the MBC in the series on B. subtilis EC1524 (Bacillus subtilis, EC1524) was more than 50 µg/mL; in the series on B. cereus ATCC11778 (Bacillus cereus, ATCC11778) it was more than 200 µg/mL; against E. coli ATCC25922, more than 400 µg/mL; against P. aeruginosa ATCC27853, more than 400 µg/mL; with S. aureus ATCC29219 it was more than 400 µg/mL. Besides, the MIC worked out at 5.2 ± 1.8 µg/mL (≈ 6.58 µM) against B. subtilis EC1524 (Bacillus subtilis, EC1524); 6.25 µg/mL (≈ 7.9 µM) in the series on B. subtilis EC1524 (Bacillus subtilis, EC1524, read-out: Minimal Inhibitory Concentration, B. subtilis EC1524); 83 ± 29 µg/mL (≈ 105 µM) with B. cereus ATCC11778 (Bacillus cereus, ATCC11778); 100 µg/mL (≈ 126 µM) with B. cereus ATCC11778 (Bacillus cereus, ATCC 11778 / NRRL11778, read-out: Minimal Inhibitory Concentration, B. cereus NRRL 11778); 330 ± 120 µg/mL (≈ 417 µM) with E. coli ATCC25922; 83 ± 29 µg/mL (≈ 105 µM) against P. aeruginosa ATCC27853. In addition, the MIC against S. aureus ATCC29219 was found to be 170 ± 60 µg/mL (≈ 215 µM); in the series with Mtb H37Rv ATCC27294 (168 h, read-out: 1-week MIC in 7H9/ADC/Tw), 5 ± 3.5 µg/mL; in the series with Mtb H37Rv ATCC27294 (168 h, read-out: 1-week MIC in GAST/Fe) it was 1.6 ± 1.8 µg/mL; with Mtb H37Rv ATCC27294 (168 h, read-out: Minimal Inhibitory Concentration, Mtb H37RV a), 5 µg/mL; with Mtb H37Rv ATCC27294 (168 h, read-out: Minimal Inhibitory Concentration, Mtb H37RV b) it was 1.6 µg/mL. For the same compound, in the series with B. subtilis EC1524 (setting [1]), the “Relative Therapeutic Index (RTI), B. subtilis EC1524” value came out at 128. In addition, the “Relative Therapeutic Index (RTI), B. cereus NRRL 11778” value with B. cereus ATCC11778 (setting [1]) is reported as 8. Moreover, the “Relative Therapeutic Index (RTI), Mtb H37RV a” value in the series on Mtb H37Rv ATCC27294 (minimal lethal dose / MIC, 7H9/ADC/Tw, 800 μg mL-1 used for >400) is recorded as 160. Besides, the “Relative Therapeutic Index (RTI), Mtb H37RV b” value in the series with Mtb H37Rv ATCC27294 (minimal lethal dose / MIC, GAST/Fe, 800 μg mL-1 used for >400) came to 500. Also, in the series with HEK293 cells, the “LD50 values, HEK293” value is on record as “N/A (N/A = not available. No or low cytotoxicity observed at highest, saturating concentration tested (400 µg mL-1))”. For the same compound, the “Minimal Lethal Dose, HEK 293” value in the series with HEK293 cells (setting [2]) was more than 400 µg/mL. Also, in the series on HepG2 cells, the “LD50 values, HepG2” value was “N/A (N/A = not available. No or low cytotoxicity observed at highest, saturating concentration tested (400 µg mL-1))”. In the series with HepG2 cells (setting [2]), the “Minimal Lethal Dose, HepG2” value was more than 400 µg/mL. Further, in the series with Raji cells, the “LD50 values, Raji” value was 431.10 ± 241.81 µg/mL.
